The numbers were not newly measured in publication PMC4008333 (Cancer chemotherapy and pharmacology, 2012), which cites them from elsewhere.

Starred links: 1 amine or outer side, 2 acyl side, 3 side chain; linkers in the order of their positions; H or OH if unused. Positions of bridges follow the written chain, without caps; N, C: chain ends. Non-standard residues stand in square brackets, D forms with d. Residues, ends and D or L forms follow the SMILES beside them. Chains are numbered I, II in the order given. Actinocin(9to1) = Cc1c2oc3c(C)ccc(C(=O)[*:1])c3nc-2c(C(=O)[*:2])c(N)c1=O; NMeV = CN[C@H](C(=O)O)C(C)C; Sar = CNCC(=O)O

For the data set the following is noted: historical model; point estimate (% RSE).

As for `Cc1c2oc3c(C)ccc(C(=O)N[C@@H]4C(=O)N[C@H](C(C)C)C(=O)N5CCC[C@H]5C(=O)N(C)CC(=O)N(C)[C@@H](C(C)C)C(=O)O[C@@H]4C)c3nc-2c(C(=O)N[C@@H]2C(=O)N[C@H](C(C)C)C(=O)N3CCC[C@H]3C(=O)N(C)CC(=O)N(C)[C@@H](C(C)C)C(=O)O[C@@H]2C)c(N)c1=O` [AMD, actinomycin-D] (I: T[dV]P[Sar][NMeV] / II: T[dV]P[Sar][NMeV]; ester I:1-I:C, II:1-II:C; linker I:N-II:N via Actinocin(9to1)), the Q2 is 11.4 (58.8) L/h/70 kg, the Q3 is 25.2 (23.3) L/h/70 kg, the V1 was 3.56 (39.3) L/70 kg and the V2 is on record as 16.1 (80.7) L/70 kg. The V3 is recorded as 367 (19.7) L/70 kg.
